The nature of series [1]: Weekly body weights of AAV2/5-human WT Asyn rats. Type of series: in vivo, rat. Particulars: low and high cohorts, 6 mg/kg i.p. daily, over 8 weeks, vs vehicle. How it is done:
Sprague Dawley male rats (16–18 weeks of age, 400–525 g) were purchased from Charles River Laboratories and acclimated to Emory University animal facilities. Rats were pair housed in standard plexiglass cages under normal 12-hr light cycles and handled in accordance with protocols approved by the IACUC of Emory University in Atlanta, GA. Rats were administered unilateral injections of AAV2/5-human wild-type (WT) Asyn at titers of 2.9–4.3 × 10^11 vector genomes (vg)/mL (termed “low cohort”), which was previously shown to not induce nigral neurotoxicity. Thereby, generating a model with overexpression of human WT Asyn and Asyn-mediated neuroinflammation. One week after surgery, animals were randomly selected to receive daily systemic injections of either SMM-189 (intraperitoneal (i.p.), 6 mg/kg, n = 12) or vehicle (i.p., n = 12) and followed for 8 weeks (Figs. 1; n = 2 rats per group were removed due to poor nigral targeting). The dose of SMM-189 was based on a pharmacokinetic study in mice determining therapeutic brain-blood ratios as described below. […]
An additional cohort of rats (termed “high cohort”) was evaluated to determine effects of SMM-189 on immune cell populations in the brain, resident or infiltrating, and the periphery as measured by flow cytometry (Fig. 1). […] Brains were collected at endpoints, and brain immune cells isolated and evaluated using multicolor flow cytometry. […]

In series [2] the test system is CD206, YM1, TGFb, TNF, CB2 gene expression. Put plainly: qPCR of immune markers in frontal cortex and PBMCs. Type of series: in vivo. The settings on record: rat low cohort. How it is done:
PBMCs were isolated from blood of low cohort rats at euthanasia (8 weeks) for qPCR analysis of immune genes and from blood of high cohort rats at baseline, 4 and 8 weeks after AAV2/5-human WT Asyn and evaluated with flow cytometry for a longitudinal immunophenotype assessment. Red blood cells were lysed using 1x RBC lysis buffer (Biolegend Cat#420301) for 5 min in the dark. Lysis buffer was neutralized by adding 1x HBSS (Gibco Cat#14175095). Cells were pelleted by centrifugation at 400g for 5 min, supernatant removed, and cells washed with HBSS. For the high cohort, cells were resuspended in 200μL of PBS and transferred to a 96-well v-bottom plate for flow cytometry staining. For low cohort, 10,000 cells were lysed in 600μL RLT lysis buffer (Qiagen Cat#79216) + 1% BME, further homogenized by centrifugation through a QiaShredder column (2 min at 21,130g). Lysate was then stored at -80°C and later processed for RNA extraction.
Total RNA was extracted from the frontal cortex and from PBMCs of low cohort animals and standardized across all samples and groups. In short, tissue was suspended in Trizol and homogenized with a TissueLyser (Retsch). Homogenate was incubated with chloroform and RNA separated by centrifugation of […] for 15 min at 4°C. RNA was further isolated with a RNAeasy mini kit (Qiagen). The RNA (1 µg) was then reverse transcribed to cDNA and analyzed with primers (Integrated DNA Technologies) for pro-inflammatory and anti-inflammatory immune markers and CB2 (Table 1) by qRT-PCR using protocols previously published. Resulting threshold cycle (Ct) values were analyzed by the 2-ΔΔCt method using the AAV2/5-hαsyn + vehicle as the control group and normalized to GAPDH for PBMCs and HPRT1 for frontal cortex as the housekeeping genes.

The mark [3] stands for this setting: frontal cortex, relative to vehicle.

For the compound `O=C(c1ccccc1)c1cc(O)c(-c2cc(Cl)cc(Cl)c2)c(O)c1` [SMM-189], the “Rats weight, difference between treatment groups” value in series [1] was “no significant differences”. For the same compound, in series [2] (PBMCs, relative to vehicle), the TGFβ gene expression result was “increased”. The TNF transcript entry in series [2] (endpoint PBMCs, relative to vehicle) is reported as “decreased”. Also, the CB2 gene expression entry in series [2] (frontal cortex and PBMCs, between groups) is reported as “not different”. In series [2] (setting [3]), the CD206 gene expression result is listed as “increased” and the YM1 gene expression result is “increased”.
